For three compounds, remaining binding results are on record in publication PMC6437697 (Journal of Medicinal Chemistry, 2019).

Holding throughout (assay): KINOMEscan
What all share (assay type): binding
What all share (settings): read-out: % control activity remaining

The target of test [1] is T1, LTK (Homo sapiens, UniProt P29376).
T1 construct: purchased Eurofins DiscoverX KINOMEscan

The target of test [2] is T2, RSK2(Kin.Dom.2-C-terminal) (Homo sapiens, UniProt P51812).
T2 construct: RSK2(Kin.Dom.2-C-terminal); purchased Eurofins DiscoverX KINOMEscan
T2 sequence (P51812 422-679 limits assumed): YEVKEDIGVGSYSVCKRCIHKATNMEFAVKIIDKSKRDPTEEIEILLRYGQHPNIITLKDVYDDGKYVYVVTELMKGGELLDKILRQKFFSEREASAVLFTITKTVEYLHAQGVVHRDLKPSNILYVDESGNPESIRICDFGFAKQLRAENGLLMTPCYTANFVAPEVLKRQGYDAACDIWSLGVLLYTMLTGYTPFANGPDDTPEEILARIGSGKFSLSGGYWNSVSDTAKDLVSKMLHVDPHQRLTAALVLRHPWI

The target of test [3] is T3, CDC2L5 (Homo sapiens, UniProt Q14004).
T3 construct: purchased Eurofins DiscoverX KINOMEscan
T3 sequence (Q14004 whole entry): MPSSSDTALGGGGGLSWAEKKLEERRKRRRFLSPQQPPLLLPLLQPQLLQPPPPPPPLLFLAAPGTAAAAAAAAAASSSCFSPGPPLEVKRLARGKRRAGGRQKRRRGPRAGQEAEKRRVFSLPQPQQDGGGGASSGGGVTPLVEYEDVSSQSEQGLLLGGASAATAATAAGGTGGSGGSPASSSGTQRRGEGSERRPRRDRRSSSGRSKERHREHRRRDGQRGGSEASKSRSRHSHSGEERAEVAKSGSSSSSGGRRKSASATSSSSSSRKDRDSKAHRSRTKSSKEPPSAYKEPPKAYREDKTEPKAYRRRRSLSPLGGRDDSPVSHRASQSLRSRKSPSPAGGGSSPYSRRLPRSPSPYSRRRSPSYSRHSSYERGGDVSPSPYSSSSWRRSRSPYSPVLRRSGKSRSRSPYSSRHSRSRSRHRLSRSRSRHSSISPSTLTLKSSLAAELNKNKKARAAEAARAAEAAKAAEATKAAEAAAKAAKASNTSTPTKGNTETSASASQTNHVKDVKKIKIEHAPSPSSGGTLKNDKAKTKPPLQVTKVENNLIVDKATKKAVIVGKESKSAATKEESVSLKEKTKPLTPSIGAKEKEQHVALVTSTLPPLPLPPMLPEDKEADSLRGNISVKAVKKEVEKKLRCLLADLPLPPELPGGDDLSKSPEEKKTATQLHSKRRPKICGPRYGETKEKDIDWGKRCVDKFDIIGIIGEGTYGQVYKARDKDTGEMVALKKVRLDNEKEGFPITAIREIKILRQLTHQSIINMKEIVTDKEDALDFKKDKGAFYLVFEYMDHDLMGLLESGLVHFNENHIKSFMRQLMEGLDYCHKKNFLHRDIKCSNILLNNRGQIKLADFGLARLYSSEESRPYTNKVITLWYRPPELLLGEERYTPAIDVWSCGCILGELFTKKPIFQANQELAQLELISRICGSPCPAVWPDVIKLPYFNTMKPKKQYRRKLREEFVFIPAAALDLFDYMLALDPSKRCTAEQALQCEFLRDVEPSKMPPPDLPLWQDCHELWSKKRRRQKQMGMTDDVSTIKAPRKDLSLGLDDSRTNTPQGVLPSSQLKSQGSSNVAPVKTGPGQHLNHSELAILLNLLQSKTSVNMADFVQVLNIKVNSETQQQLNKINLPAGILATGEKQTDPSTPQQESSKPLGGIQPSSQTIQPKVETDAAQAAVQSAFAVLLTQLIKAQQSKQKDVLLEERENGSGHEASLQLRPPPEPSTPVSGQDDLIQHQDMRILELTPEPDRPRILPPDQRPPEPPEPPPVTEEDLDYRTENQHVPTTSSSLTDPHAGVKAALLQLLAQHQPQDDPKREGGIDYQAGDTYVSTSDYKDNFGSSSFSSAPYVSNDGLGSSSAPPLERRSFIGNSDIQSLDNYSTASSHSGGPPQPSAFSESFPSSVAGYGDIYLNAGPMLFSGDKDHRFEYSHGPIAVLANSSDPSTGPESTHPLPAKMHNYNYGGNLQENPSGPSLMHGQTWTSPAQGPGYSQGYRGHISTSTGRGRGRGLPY

The target of test [4] is T4, CSNK1A1L (Homo sapiens, UniProt Q8N752).
T4 construct: purchased Eurofins DiscoverX KINOMEscan
T4 sequence (Q8N752 1-337): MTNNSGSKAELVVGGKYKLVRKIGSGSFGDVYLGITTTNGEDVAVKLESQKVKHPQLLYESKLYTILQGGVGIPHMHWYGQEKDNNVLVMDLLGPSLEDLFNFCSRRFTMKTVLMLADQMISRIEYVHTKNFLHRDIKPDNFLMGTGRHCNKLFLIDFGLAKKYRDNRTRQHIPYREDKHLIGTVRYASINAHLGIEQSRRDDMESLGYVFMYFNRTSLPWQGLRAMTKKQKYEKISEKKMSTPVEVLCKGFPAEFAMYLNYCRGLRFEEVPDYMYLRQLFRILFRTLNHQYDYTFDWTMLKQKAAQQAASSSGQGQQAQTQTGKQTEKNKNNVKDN

Test [5] has as its target T5, ACVRL1 (Homo sapiens, UniProt P37023).
T5 construct: purchased Eurofins DiscoverX KINOMEscan

The target in test [6] is T6, DAPK3 (Homo sapiens, UniProt O43293).
T6 construct: purchased Eurofins DiscoverX KINOMEscan
T6 sequence (O43293 whole entry): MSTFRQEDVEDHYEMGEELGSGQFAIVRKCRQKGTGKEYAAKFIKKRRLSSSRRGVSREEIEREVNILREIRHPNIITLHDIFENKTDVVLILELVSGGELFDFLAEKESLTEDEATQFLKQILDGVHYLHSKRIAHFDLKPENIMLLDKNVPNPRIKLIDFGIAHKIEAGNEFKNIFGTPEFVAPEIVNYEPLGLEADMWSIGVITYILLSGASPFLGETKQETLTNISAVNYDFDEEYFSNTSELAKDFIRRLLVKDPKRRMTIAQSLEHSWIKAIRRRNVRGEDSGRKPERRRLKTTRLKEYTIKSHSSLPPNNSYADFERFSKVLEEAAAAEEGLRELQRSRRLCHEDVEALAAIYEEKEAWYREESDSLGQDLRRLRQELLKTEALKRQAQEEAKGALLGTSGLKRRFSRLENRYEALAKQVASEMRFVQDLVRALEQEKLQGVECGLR

The target in test [7] is T7, p38-gamma (Homo sapiens, UniProt P53778).
T7 construct: purchased Eurofins DiscoverX KINOMEscan
T7 sequence (P53778 1-367): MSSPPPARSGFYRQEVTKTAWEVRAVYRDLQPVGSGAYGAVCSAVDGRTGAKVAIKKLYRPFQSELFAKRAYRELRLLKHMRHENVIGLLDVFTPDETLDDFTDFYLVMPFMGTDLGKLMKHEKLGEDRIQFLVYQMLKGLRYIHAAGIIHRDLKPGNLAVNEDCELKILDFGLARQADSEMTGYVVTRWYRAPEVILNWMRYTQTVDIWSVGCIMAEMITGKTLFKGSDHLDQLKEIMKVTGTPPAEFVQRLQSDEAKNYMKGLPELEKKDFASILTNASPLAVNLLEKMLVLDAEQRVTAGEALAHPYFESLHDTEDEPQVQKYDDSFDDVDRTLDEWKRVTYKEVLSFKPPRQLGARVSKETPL

For test [8], the target named is T8, CSNK2A1 (Homo sapiens, UniProt P68400).
T8 construct: purchased Eurofins DiscoverX KINOMEscan

In test [9] the target is T9, RSK4(Kin.Dom.1-N-terminal) (Homo sapiens, UniProt Q9UK32).
T9 construct: RSK4(Kin.Dom.1-N-terminal); purchased Eurofins DiscoverX KINOMEscan
T9 sequence (Q9UK32 73-330 limits assumed): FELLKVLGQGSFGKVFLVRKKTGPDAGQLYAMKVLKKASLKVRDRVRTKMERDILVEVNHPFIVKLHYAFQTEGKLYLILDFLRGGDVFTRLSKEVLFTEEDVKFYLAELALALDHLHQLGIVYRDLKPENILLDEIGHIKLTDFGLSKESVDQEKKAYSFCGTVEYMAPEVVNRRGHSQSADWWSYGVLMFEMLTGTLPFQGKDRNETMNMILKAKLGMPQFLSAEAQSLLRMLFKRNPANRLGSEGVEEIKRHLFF

Test [10] deals with T10, JNK2 (Homo sapiens, UniProt P45984).
T10 construct: purchased Eurofins DiscoverX KINOMEscan

For test [11], the target named is T11, MELK (Homo sapiens, UniProt Q14680).
T11 construct: purchased Eurofins DiscoverX KINOMEscan

Test [12] deals with T12, BRK (Homo sapiens, UniProt Q13882).
T12 construct: purchased Eurofins DiscoverX KINOMEscan
T12 sequence (Q13882 whole entry): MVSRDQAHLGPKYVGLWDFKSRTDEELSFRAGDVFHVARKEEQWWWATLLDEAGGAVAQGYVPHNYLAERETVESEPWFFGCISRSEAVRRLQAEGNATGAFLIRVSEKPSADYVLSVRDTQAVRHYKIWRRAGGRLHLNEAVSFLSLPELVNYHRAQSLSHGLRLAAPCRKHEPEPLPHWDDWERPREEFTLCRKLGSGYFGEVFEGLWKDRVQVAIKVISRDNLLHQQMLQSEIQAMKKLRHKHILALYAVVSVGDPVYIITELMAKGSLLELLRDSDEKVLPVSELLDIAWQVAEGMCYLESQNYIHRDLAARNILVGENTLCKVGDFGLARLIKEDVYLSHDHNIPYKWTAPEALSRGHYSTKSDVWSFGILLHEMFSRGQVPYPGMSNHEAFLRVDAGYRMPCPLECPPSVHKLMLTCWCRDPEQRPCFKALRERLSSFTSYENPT

Test [13] deals with T13, LATS2 (Homo sapiens, UniProt Q9NRM7).
T13 construct: purchased Eurofins DiscoverX KINOMEscan
T13 sequence (Q9NRM7 1-1088): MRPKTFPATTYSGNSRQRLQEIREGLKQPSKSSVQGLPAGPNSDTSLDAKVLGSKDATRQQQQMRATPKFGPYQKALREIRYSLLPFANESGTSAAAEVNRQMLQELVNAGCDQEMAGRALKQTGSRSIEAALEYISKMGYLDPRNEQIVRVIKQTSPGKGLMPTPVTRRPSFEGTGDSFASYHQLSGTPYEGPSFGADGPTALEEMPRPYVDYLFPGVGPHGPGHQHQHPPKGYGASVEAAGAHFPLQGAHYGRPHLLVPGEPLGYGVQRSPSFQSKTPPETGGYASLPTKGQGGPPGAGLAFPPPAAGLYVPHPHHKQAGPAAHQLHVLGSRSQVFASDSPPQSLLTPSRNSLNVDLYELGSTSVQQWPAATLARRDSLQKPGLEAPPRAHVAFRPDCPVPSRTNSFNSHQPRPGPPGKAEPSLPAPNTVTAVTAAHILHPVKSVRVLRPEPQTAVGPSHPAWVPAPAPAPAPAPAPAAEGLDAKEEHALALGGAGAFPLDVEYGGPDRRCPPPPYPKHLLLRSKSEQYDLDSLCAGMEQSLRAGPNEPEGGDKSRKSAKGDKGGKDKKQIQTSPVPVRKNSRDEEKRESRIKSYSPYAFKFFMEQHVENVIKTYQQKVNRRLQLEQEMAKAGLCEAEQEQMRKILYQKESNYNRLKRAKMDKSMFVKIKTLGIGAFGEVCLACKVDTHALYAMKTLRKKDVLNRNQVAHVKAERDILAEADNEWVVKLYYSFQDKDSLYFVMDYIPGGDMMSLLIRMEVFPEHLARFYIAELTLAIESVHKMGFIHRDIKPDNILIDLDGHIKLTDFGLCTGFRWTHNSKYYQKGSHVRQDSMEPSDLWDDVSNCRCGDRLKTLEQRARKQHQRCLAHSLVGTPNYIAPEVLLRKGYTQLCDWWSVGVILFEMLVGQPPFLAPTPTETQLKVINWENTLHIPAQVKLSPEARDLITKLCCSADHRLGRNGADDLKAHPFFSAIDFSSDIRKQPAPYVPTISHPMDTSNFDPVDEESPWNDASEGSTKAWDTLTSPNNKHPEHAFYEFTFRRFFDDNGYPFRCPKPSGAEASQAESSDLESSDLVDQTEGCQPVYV

The target in test [14] is T14, MAP3K4 (Homo sapiens, UniProt Q9Y6R4).
T14 construct: purchased Eurofins DiscoverX KINOMEscan
T14 sequence (Q9Y6R4 whole entry): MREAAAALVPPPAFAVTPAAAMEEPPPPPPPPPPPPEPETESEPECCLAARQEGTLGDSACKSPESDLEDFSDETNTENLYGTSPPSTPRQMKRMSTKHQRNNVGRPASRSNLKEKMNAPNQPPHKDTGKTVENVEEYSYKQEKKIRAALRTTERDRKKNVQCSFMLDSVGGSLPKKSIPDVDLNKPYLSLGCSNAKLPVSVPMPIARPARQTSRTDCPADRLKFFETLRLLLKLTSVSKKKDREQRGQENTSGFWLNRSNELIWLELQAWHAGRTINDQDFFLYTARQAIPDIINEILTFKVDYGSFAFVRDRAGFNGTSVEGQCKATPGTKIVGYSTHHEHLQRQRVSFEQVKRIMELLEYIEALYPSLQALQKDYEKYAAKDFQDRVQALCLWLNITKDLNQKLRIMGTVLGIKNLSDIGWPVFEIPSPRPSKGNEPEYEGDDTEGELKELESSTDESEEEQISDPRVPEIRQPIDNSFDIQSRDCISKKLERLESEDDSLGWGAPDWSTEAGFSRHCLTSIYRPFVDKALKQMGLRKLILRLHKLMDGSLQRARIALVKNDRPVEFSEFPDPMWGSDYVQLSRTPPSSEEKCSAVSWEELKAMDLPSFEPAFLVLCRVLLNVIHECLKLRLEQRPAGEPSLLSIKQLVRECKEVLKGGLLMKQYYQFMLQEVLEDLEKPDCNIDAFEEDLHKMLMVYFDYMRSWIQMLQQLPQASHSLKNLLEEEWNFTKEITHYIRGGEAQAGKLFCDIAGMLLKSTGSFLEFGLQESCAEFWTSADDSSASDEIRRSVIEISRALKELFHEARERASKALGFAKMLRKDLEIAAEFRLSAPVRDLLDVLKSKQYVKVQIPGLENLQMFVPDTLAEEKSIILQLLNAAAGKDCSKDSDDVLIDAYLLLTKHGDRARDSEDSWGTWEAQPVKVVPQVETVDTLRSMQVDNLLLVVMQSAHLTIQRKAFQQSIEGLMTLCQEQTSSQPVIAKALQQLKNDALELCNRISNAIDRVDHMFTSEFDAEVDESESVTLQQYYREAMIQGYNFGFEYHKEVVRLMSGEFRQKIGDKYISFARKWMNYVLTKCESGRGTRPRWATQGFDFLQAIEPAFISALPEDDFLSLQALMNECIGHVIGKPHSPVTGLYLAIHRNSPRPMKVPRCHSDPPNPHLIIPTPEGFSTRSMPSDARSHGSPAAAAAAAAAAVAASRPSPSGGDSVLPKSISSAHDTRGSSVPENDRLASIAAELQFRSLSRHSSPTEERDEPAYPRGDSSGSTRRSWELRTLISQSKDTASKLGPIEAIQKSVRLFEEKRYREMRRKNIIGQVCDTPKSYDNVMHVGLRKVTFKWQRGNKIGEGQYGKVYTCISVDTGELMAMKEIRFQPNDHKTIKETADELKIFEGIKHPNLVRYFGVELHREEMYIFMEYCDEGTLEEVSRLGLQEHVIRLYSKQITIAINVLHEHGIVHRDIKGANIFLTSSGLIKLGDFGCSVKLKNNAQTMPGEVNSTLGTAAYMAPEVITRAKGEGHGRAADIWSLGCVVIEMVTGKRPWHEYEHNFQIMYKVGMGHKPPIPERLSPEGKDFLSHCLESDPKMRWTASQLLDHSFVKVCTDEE

Test [15] addresses T15, CAMK2D (Homo sapiens, UniProt Q13557).
T15 construct: purchased Eurofins DiscoverX KINOMEscan

T15 sequence (Q13557 whole entry): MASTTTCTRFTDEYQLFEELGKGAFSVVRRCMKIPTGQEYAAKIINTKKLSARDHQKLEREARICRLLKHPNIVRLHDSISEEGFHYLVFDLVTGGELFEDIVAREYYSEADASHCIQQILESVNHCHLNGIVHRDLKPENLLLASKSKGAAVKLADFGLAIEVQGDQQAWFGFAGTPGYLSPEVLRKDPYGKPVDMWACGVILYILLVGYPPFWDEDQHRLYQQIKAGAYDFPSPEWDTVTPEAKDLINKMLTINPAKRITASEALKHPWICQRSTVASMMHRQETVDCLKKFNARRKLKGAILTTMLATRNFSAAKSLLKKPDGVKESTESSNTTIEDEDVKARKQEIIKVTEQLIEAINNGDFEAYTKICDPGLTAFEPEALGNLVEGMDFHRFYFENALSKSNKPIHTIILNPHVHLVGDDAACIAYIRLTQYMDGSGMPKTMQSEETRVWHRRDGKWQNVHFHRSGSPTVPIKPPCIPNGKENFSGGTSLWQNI

`Clc1cc(NCC2CC2)c2ncc(-c3ccc4[nH]ncc4c3)n2n1` [compound 2, 6-Chloro-N-(cyclopropylmethyl)-3-(1H-indazol-5-yl)imidazo[1,2-b]pyridazin-8-amine]: the remaining binding at 1 µM in [1] worked out at 100%; in [2], 89%; in test [3] it was 92%; in test [4], 100%; in [5], 98%; in test [6] it was 85%. Further, the remaining binding at 1 µM in test [7] amounted to 73%; in [8], 85%; in test [9], 27%; in [10], 91%; in test [11] it was 35%; in test [12], 87%. Further, the remaining binding at 1 µM in test [13] came out at 58%; in [14] it was 74%; in [15], 97%.

For the compound `O=C(CN1CCOCC1)N[C@H]1CC[C@H](Nc2cc(Cl)nn3c(-c4ccc5[nH]ncc5c4)cnc23)CC1` [compound 26], the remaining binding at 1 µM is 88% in test [1]; 100% in [2]; 84% in test [3]; 88% in [4]; 100% in [5]; 34% in test [6]. The remaining binding at 1 µM was found to be 91% in test [7]; 75% in test [8]; 13% in [9]; 80% in [10]; 16% in test [11]; 85% in test [12]. In addition, the remaining binding at 1 µM in [13] was 73%; in test [14], 86%; in test [15], 62%.

Regarding `CN1CCC(CNc2cc(Cl)nn3c(-c4cc5nc(Nc6ccccc6)[nH]c5cc4F)cnc23)CC1` [compound 31, 6-Chloro-3-(6-fluoro-2-(phenylamino)-1H-benzo[d]imidazol-5-yl)-N-((1-methylpiperidin-4-yl)methyl)imidazo[1,2-b]pyridazin-8-amine], the remaining binding at 1 µM in test [1] was found to be 88%; in [2], 73%; in test [3], 96%; in test [4], 100%; in test [5], 100%; in [6] it was 84%. Also, the remaining binding at 1 µM in test [7] amounted to 83%; in test [8], 99%; in test [9] it was 97%; in test [10], 75%; in test [11], 96%; in test [12], 93%. In addition, the remaining binding at 1 µM came to 94% in test [13], 86% in test [14] and 100% in test [15].
